In patent US12459930B2, “Compounds for the inhibition of unregulated cell growth” (GODAVARI BIOREFINERIES LIMITED, priority 2018, dated 2025):
Where a name gives a salt, the structure may show the parent alone. Read-outs that look alike come from different tables or passages of the source.

Key:
[1] = tested on: DU145 prostate cancer cell line; assay: In vitro antiproliferative assay (MTT assay), DU145; assay type: cell-based; details: 48 hrs drug incubation, read-out: IC50 in micromolar, DU145 (MTT assay)
Procedure: (§1) MTT assay is a simple and sensitive assay where, metabolic reducing activity of the cells is measured. The increase of this activity in time is taken as a parameter of cell growth. If treatment with a drug impairs this increase, the action is a consequence of growth inhibition, cell killing or both. […] All cell lines were cultured in a 37° C. incubator with a 5% CO2 environment. Compounds were dissolved in DMSO with a concentration of 0.1M (stock solution). Cells were seeded into 96-well plates at suitable plating efficiency.
(§2) Following plating efficiencies were standardized for MTT assay:
(§3) In the MTT procedure, the cells were plated in 96 well plates as per predetermined plating efficiency (Table1). The plates were then incubated for 24 hrs in 5% CO2 atmosphere at 37° C. Appropriate concentrations of the drugs were then added to the plate and further incubation was carried out for 48 hrs (in 5% CO2 atmosphere at 37° C.). The assay plate was then centrifuged twice at 3000 rpm for 3 mins and supernatant was then discarded. 100 ul of MTT solution (0.5 mg/ml) was then added to each well of the plate and it was further incubated for 4 hrs (in 5% CO2 atmosphere at 37° C.) Following 4 hr incubation, the plate was then centrifuged twice, and supernatant was aspirated off very carefully. 200 ul of DMSO was then added to each well to solubilize. MTT crystals and mixed well by shaking the plate. XY graph of log percent viability was then plotted against log drug concentration.

[2] = tested on: MDAMB231 breast cancer cell line; assay: In vitro antiproliferative assay (MTT assay), MDAMB231; assay type: cell-based; details: 48 hrs drug incubation, read-out: IC50 in micromolar, MDAMB231 (MTT assay)
Procedure: as §1, §2, §3

[3] = tested on: PC3 prostate cancer cell line; assay: Soft agar colony-formation assay, PC3; assay type: cell-based; details: 1 week, Alamar Blue, read-out: IC50 in micromolar, PC3 (Soft Agar Assay)
Procedure: (§4) The Soft Agar Colony-formation Assay is an anchorage-independent growth assay in soft agar, which is one of the most stringent assays for detecting malignant transformation of cells. For this assay, malignant cells are cultured with appropriate controls in soft agar medium for 1-2 weeks. Following this incubation period, formed colonies can either be analyzed morphologically using cell stain and quantifying the number of colonies formed.
(§5) Briefly, for Soft Agar Assay a mixture of 50 ul of 2× medium (taken appropriately as per cell line) and 50 ul of 1.2% Bacto Agar were plated on to each well of 96 well micro titer assay plate. 10 ul of cells (of specific plating efficiency pre standardized for respective cell line) were mixed with 20 ul of 2× medium and 30 ul of 0.8% of Bacto Agar and 1.6 ul of drug (of appropriate concentration) in a vial and transferred to the solidified pre layers of the assay plates. The cells were then allowed to grow and form colonies at 37° C. and 5% C02 for 1 week. An intermittent feeding with 50 ul of appropriate 2× medium was performed after 3 days of experimental set up. 16 ul of Alamar Blue (1.5 mg/ml) was then added to all the wells to quantify the developed colonies. The plates were incubated for 24 hrs at 37° C. Absorbance was then measured at 630 nm. XY graph of log Percent viability was then plotted against log drug concentration.
(§6) Following plating efficiencies were standardized for Soft Agar Assay: […]

[4] = tested on: MDAMB231 breast cancer cell line; assay: Soft agar colony-formation assay, MDAMB231; assay type: cell-based; details: 1 week, Alamar Blue, read-out: IC50 in micromolar, MDAMB231 (Soft Agar Assay)
Procedure: as §4, §5, §6

[5] = tested on: PC3 spheres (cancer stem cells); assay: In vitro sphere-forming assay (cancer stem cells), PC3 in Prostosphere media; details: for 3D sphere count of PC3 in Prostosphere media: 2000 cells/well, n = 6 ± S.D; for viability at 0.025 µM: read-out: % Viability of spheres (PC3), 0.025 uM; for viability at 0.25 µM: read-out: % Viability of spheres (PC3), 0.25 uM; for viability at 2.5 µM: read-out: % Viability of spheres (PC3), 2.5 uM; for viability at 25 µM: read-out: % Viability of spheres (PC3), 25 uM; for viability at 0.0025 µM: read-out: % Viability of spheres (PC3), 0.0025 uM
Description: (§7) In Vitro Sphere-forming Assay: Sphere assay measures the ability of cancer stem cells (CSCs) to form spheres in specially designed serum-free medium.
Materials and Reagents:50×B27 Supplement (Life Technologies, Invitrogen, Catlog No.: 17502-044), Fibroblast Growth Factor (FGF) (Sigma-Aldrich, Catlog No.: F029125), Epidermal Growth Factor (EGF) (Sigma-Aldrich, Catlog No.: E9644), Insulin (Sigma, Catlog No.: 19278), Dulbecco's Modified Eagle Medium/F12 (HiMedia Catlog No.: AL139-6), Dulbecco's Phosphate Buffered Saline (HiMedia Catlog No.: TL1006), Trypan Blue (TC193), Prostate Epithelial Media (LONZA, Catlog No.: CC-3166) MEGM (LONZA, Catlog No.: CC-3051), Heparin (Sigma, Catlog No.: H3393), Penstrep (HiMedia, Catlog No.: A002)
Prostosphere Media Preparation (For 100 mL): 1 g methyl cellulose autoclaved with magnetic stirrer, 100 mL plain media (Prostate Epithelial Basal Medium) was added and dissolved, under magnetic stirring. After complete dissolution, Insulin—40 μL, B27—2 mL, EGF—80 μL, Penstrep—1 ml was added.
(§8) Procedure—The cells were trypsinised and made into single-cell suspension by passing through cell strainers (100 μl and 40 μl, respectively), The cells were diluted at a concentration of 2000 cells/100 μL and suspended in either Mammosphere (for breast cell lines) or Prostosphere (for prostate cell lines). 100 μL of this suspension was added into each well of 96-well suspension plates and incubated at 37 C, 50 CO2 for 24 hrs. Appropriate concentrations of the drugs (2 L) were added into respective wells with 100 μL of stem cell culture medium. Plates were incubated at 37° C., 50% CO2 for 72 hrs. After incubation, 2.5 μL of the respective drug concentration and 50 μL of stem cell culture medium were added into each well and the plates were further incubated at 37° C., 500 CO2 for 72 hrs. 3 μL of the respective drug concentration was added with 50 μL of stem cell culture medium again after incubation and plates were reincubated for 72 hrs at 37° C., 500 CO2. Number of primary spheres formed for each concentration were counted. The spheres were converted to 0 viability of spheres compared to untreated (Growth Control with DMSO, GCD).

[6] = tested on: PC3 prostate cancer cell line; assay: In vitro antiproliferative assay (MTT assay), PC3; assay type: cell-based; details: 48 h, 48 hrs drug incubation, read-out: IC50 in micromolar, PC3 (MTT assay)
Procedure: as §1, §2, §3

[7] = tested on: MDAMB231 spheres (cancer stem cells); assay: In vitro sphere-forming assay (cancer stem cells), MDAMB231 in Mammosphere media; details: for 3D sphere count of MDAMB231 in Mammosphere media: 2000 cells/well, n = 6 ± S.D; for viability at 0.0025 µM / viability at 0.025 µM / viability at 0.25 µM / viability at 2.5 µM / viability at 25 µM: Homo sapiens, MDA-MB-231, read-out: % Viability of spheres (MDAMB231)
Procedure: as §7
Mammosphere Media Preparation (For 100 mL): 1 g methyl cellulose autoclaved with magnetic stirrer, 100 ml plain media (MEBM) was added and dissolved under magnetic stirring. After complete dissolution FGF—80 μL, EGF—40 μL, Penstrep—1 mL, Heparin—400 μL was added.
as §8

[8] = Homo sapiens, MDA-MB-231, 168 h

Row | SMILES | IC50 [6] | IC50 ([1]; Homo sapiens, DU-145, 48 h) | IC50 ([2]; Homo sapiens, MDA-MB-231, 48 h) | IC50 ([3]; 168 h) | 3D sphere count of PC3 in Prostosphere media ([5]; 0.025 uM) | 3D sphere count of PC3 in Prostosphere media ([5]; 0.25 uM) | 3D sphere count of PC3 in Prostosphere media ([5]; 2.5 uM) | 3D sphere count of PC3 in Prostosphere media ([5]; 25 uM) | viability at 0.025 µM ([5]; GCD = 100% viability) | viability at 0.25 µM ([5]; GCD = 100% viability) | viability at 2.5 µM ([5]; GCD = 100% viability) | viability at 25 µM ([5]; GCD = 100% viability) | 3D sphere count of PC3 in Prostosphere media ([5]; 0.0025 uM) | viability at 0.0025 µM ([5]; GCD = 100% viability) | 3D sphere count of MDAMB231 in Mammosphere media ([7]; 0.0025 uM) | 3D sphere count of MDAMB231 in Mammosphere media ([7]; 0.025 uM) | 3D sphere count of MDAMB231 in Mammosphere media ([7]; 0.25 uM) | 3D sphere count of MDAMB231 in Mammosphere media ([7]; 2.5 uM) | 3D sphere count of MDAMB231 in Mammosphere media ([7]; 25 uM) | viability at 0.0025 µM [7] | other results
1 | COc1cc2c(OCCCCN3CCOCC3)c3c(c(-c4ccc5c(c4)OCO5)c2cc1OC)C(=O)OC3 [Formula VI, 4-(4-morpholinobutoxy)-9-(benzo[d][1,3]dioxol-5-yl)-6,7-dimethoxynaphtho[2,3-c]furan-1(3H)-one] | – | – | – | – | 49(±2) | 41(±2) | 37(±2) | 27(±2) | 57% | 48% | 43% | 31% | – | – | – | – | – | – | – | – | IC50 [1]: 4.05 µM; IC50 [2]: 10.9 µM; IC50 [3]: 2.65 µM; IC50 [4]: 2.69 µM; 3D sphere count of PC3 in Prostosphere media ([5]; 250 uM): 0(±0); viability at 250 µM ([5]; read-out: % Viability of spheres (PC3), 250 uM, GCD = 100% viability): 0%
2 | c1cnc2c(OCCCCCCN3CCOCC3)ccc(-c3ccc4c(c3)OCO4)c2c1 [Formula XVI, 8-(6-morpholinohexyloxy)-5-(benzo[d][1,3]dioxol-5-yl)quinoline] | 5.52 µM | 3.52 µM | 3.8 µM | – | 53(±4) | 42(±4) | 34(±3) | 25(±4) | 63% | 50% | 40% | 30% | 72(±6) | 86% | 61(±3) | 51(±3) | 42(±3) | 37(±3) | 22(±4) | 71% | viability at 0.025 µM [7]: 59%; viability at 0.25 µM [7]: 49%; viability at 2.5 µM [7]: 43%; viability at 25 µM [7]: 25%
3 | O=C(CCCOc1ccc(-c2ccc3c(c2)OCO3)c2ccccc12)N1CCOCC1 [Formula XV, 4-(1-(benzo[d][1,3]dioxol-5-yl)naphthalen-4-yloxy)-1-morpholinobutan-1-one] | 7.82 µM | 2.51 µM | 4.95 µM | 3.06 µM | – | – | – | – | – | – | – | – | – | – | 53(±2) | 51(±5) | 40(±6) | 31(±3) | 16(±4) | 64% | IC50 [4, 8]: 5.36 µM; viability at 0.025 µM [7]: 62%; viability at 0.25 µM [7]: 49%; viability at 2.5 µM [7]: 38%; viability at 25 µM [7]: 19%
4 | C=CCNCCCCCCOc1ccc(-c2ccc3c(c2)OCO3)c2c1CCCC2 [Formula XXII, 6-(5-(benzo[d][1,3]dioxol-5-yl)-1,2,3,4-tetrahydronaphthalen-8-yloxy)-N-allylhexan-1-amine] | 2.45 µM | 1.48 µM | 1.35 µM | – | 44(±4) | 36(±3) | 25(±3) | 14(±3) | 52% | 43% | 30% | 17% | 55(±3) | 66% | 47(±3) | 34(±3) | 24(±4) | 9(±2) | 0(±0) | 55% | viability at 0.025 µM [7]: 39%; viability at 0.25 µM [7]: 28%; viability at 2.5 µM [7]: 10%; viability at 25 µM [7]: 0%

The next lines start with results.

Row | IC50 [6] | IC50 ([1]; Homo sapiens, DU-145, 48 h) | IC50 ([2]; Homo sapiens, MDA-MB-231, 48 h) | IC50 ([3]; 168 h) | SMILES | 3D sphere count of PC3 in Prostosphere media ([5]; 0.025 uM) | 3D sphere count of PC3 in Prostosphere media ([5]; 0.25 uM) | 3D sphere count of PC3 in Prostosphere media ([5]; 2.5 uM) | 3D sphere count of PC3 in Prostosphere media ([5]; 25 uM) | viability at 0.025 µM ([5]; GCD = 100% viability) | viability at 0.25 µM ([5]; GCD = 100% viability) | viability at 2.5 µM ([5]; GCD = 100% viability) | viability at 25 µM ([5]; GCD = 100% viability) | 3D sphere count of PC3 in Prostosphere media ([5]; 0.0025 uM) | viability at 0.0025 µM ([5]; GCD = 100% viability) | 3D sphere count of MDAMB231 in Mammosphere media ([7]; 0.0025 uM) | 3D sphere count of MDAMB231 in Mammosphere media ([7]; 0.025 uM) | 3D sphere count of MDAMB231 in Mammosphere media ([7]; 0.25 uM) | 3D sphere count of MDAMB231 in Mammosphere media ([7]; 2.5 uM) | 3D sphere count of MDAMB231 in Mammosphere media ([7]; 25 uM) | viability at 0.0025 µM [7] | other results
5 | 3.86 µM | 4.26 µM | 4.2 µM | 2.75 µM | c1cc2c(cc1-c1ccc(OCCN3CCOCC3)c3c1CCCC3)OCO2 [Formula XXI, 4-(2-(5-(benzo[d][1,3]dioxol-5-yl)-1,2,3,4-tetrahydronaphthalen-8-yloxy)ethyl) morpholine] | 54(±2) | 50(±2) | 45(±3) | 36(±2) | 68% | 63% | 57% | 45% | 62(±4) | 78% | – | – | – | – | – | – | IC50 [4, 8]: 4.34 µM
6 | 2.82 µM | 1.99 µM | 2.13 µM | – | c1cnc2c(OCCCCNC3CCCCC3)ccc(-c3ccc4c(c3)OCO4)c2c1 [Formula XVII, N-(4-(5-(benzo[d][1,3]dioxol-5-yl)quinolin-8-yloxy)butyl)cyclohexanamine] | – | – | – | – | – | – | – | – | – | – | – | – | – | – | – | – | –
7 | – | 10.7 µM | 10.9 µM | 3.29 µM | CCOC(=O)N1CCN(CCCCCCOc2c3c(c(-c4ccc5c(c4)OCO5)c4cc(OC)c(OC)cc24)C(=O)OC3)CC1 [Formula IX, ethyl 4-(6-(9-(benzo[d][1,3]dioxol-5-yl)-1,3-dihydro-6,7-dimethoxy-1-oxonaphtho[2,3-c]furan-4-yloxy)hexyl)piperazine-1-carboxylate Hydrochloride] | – | – | – | – | – | – | – | – | – | – | – | – | – | – | – | – | IC50 ([4]; hydrochloride): 0.327 µM
